Source: US20240148743A1, “USES OF MELANOCORTIN-4 RECEPTOR AGONIST” (LG CHEM, LTD., priority 2021, published 2024)

Tested on: db/db mice
Experiment: db/db mouse model experiment (leptin receptor-deficient genetic obesity model, 45 kcal % high-fat diet)
Assay type: in vivo
Experimental: To confirm anti-obesity efficacy, N-((3S,5S)-1-((3S,4R)-1-(tert-butyl)-4-(4-chlorophenyl)pyrrolidine-3-carbonyl)-5- (morpholine-4 -carbonyl)pyrrolidin-3-yl)-N-((1s ,4R)-4-methylcyclohexyl)isobutyramide hydrochloride (hereinafter referred to as “Test Compound”) obtained in the Preparation Example was administered repeatedly for 4 weeks while feeding 45 kcal % high-fat diet (diet with 45 kcal % fat) to db/db mice which is a genetic obesity mouse model in which a mutation in the leptin receptor associated with the MC4R pathway occurred. The weight gain inhibitory effect was confirmed by measuring the body weight during the administration period, and the body fat mass reduction effect was confirmed by measuring the total body fat mass after repeated administration for 4 weeks. […] The results are represented in FIG. 1.

[1] = body fat analysis after repeated administration for 4 weeks, compared to the negative control group
[2] = db/db mice on 45 kcal % high-fat diet, repeated administration for 4 weeks, compared to the negative control group

With `CC(C)C(=O)N([C@H]1C[C@@H](C(=O)N2CCOCC2)N(C(=O)[C@@H]2CN(C(C)(C)C)C[C@H]2c2ccc(Cl)cc2)C1)[C@H]1CC[C@@H](C)CC1.Cl` [Test Compound, N-((3S,5S)-1-((3S,4R)-1-(tert-butyl)-4-(4-chlorophenyl)pyrrolidine-3-carbonyl)-5-(morpholine-4-carbonyl)pyrrolidin-3-yl)-N-((1s ,4R)-4-methylcyclohexyl)isobutyramide hydrochloride] the fat mass [1] was “significantly decreased”, the fat-free mass [1] was “no difference” and the body weight [2] was “significantly reduced”. For the same compound, the weight gain rate [2] was “significantly decreased” and the weight loss effect (leptin receptor-deficient mouse model (db/db), FIG. 1) was “significant weight loss effect”.
